Numbered stars: 1 amine (or outer) side, 2 acyl side, 3 side chain; on linkers, the order of the positions; unused ones are H or OH. Bridge positions count the residues as written; N and C are the ends. Peptide text beside a SMILES is read from it. I, II: the chains in the order shown. * marks the point of attachment. Estradiol(3-OCH2CO,17-OSuc) = C[C@]12CC[C@@H]3c4ccc(OCC(=O)[*:1])cc4CC[C@H]3[C@@H]1CC[C@@H]2OC(=O)CCC(=O)[*:2]; Succinyl(O17-estradiol) = C[C@]12CC[C@@H]3c4ccc(O)cc4CC[C@H]3[C@@H]1CC[C@@H]2OC(=O)CCC(=O)*; Acetyl(estradiol-3-yloxy) = C[C@]12CC[C@@H]3c4ccc(OCC(=O)*)cc4CC[C@H]3[C@@H]1CC[C@@H]2O; X1 = C[C@]12CC[C@@H]3c4ccc(OCC(=O)*)cc4CC[C@H]3[C@@H]1CCC2=O
What was measured:
[1] = system: Mus musculus; test: Antiosteoporosis activity against ovariectomized ICR mouse assessed as serum ALP activity at 110.3 nmol/kg, po after 30 mins; assay type: functional
[2] = system: Mus musculus; test: Toxicity in ovariectomized ICR mouse assessed as tail bleeding time at 110.3 nmol/kg, po for 90 mins; assay type: organism-based; details: in vivo, 1.5 h
[3] = system: Mus musculus; test: Toxicity in ovariectomized ICR mouse assessed as effect on body weight at 110.3 nmol/kg, po after 4 weeks; assay type: organism-based; details: in vivo, 672 h
[4] = system: Mus musculus; test: Antiosteoporosis activity against ovariectomized ICR mouse assessed as serum phosphorous level at 110.3 nmol/kg, po after 30 mins; assay type: functional
[5] = system: Mus musculus; test: Antiosteoporosis activity against ovariectomized ICR mouse assessed as femur length at 110.3 nmol/kg, po after 30 mins; assay type: functional
[6] = system: Mus musculus; test: Antiosteoporosis activity against ovariectomized ICR mouse assessed as femur ash weight at 110.3 nmol/kg, po after 30 mins; assay type: functional
[7] = system: Mus musculus; test: Toxicity in ovariectomized ICR mouse assessed as effect on lung weight at 110.3 nmol/kg, po after 4 weeks; assay type: organism-based; details: in vivo, 672 h
[8] = system: Mus musculus; test: Antiosteoporosis activity against ovariectomized ICR mouse assessed as femur calcium content at 110.3 nmol/kg, po after 30 mins; assay type: functional
[9] = system: Mus musculus; test: Toxicity in ovariectomized ICR mouse assessed as change in uterine weight at 110.3 nmol/kg, po after 4 weeks; assay type: organism-based; details: in vivo, 672 h
[10] = system: Mus musculus; test: Toxicity in ovariectomized ICR mouse assessed as effect on spleen weight at 110.3 nmol/kg, po after 4 weeks; assay type: organism-based; details: in vivo, 672 h
[11] = system: Mus musculus; test: Antiosteoporosis activity against ovariectomized ICR mouse assessed as dry femur weight at 110.3 nmol/kg, po after 30 mins; assay type: functional
[12] = system: Mus musculus; test: Antiosteoporosis activity against ovariectomized ICR mouse assessed as femur phosphorous content at 110.3 nmol/kg, po after 30 mins; assay type: functional
[13] = system: Mus musculus; test: Toxicity in ovariectomized ICR mouse assessed as tail bleeding time at 110.3 nmol/kg, po for 30 mins; assay type: organism-based; details: in vivo, 0.5 h
[14] = system: Mus musculus; test: Toxicity in ovariectomized ICR mouse assessed as effect on liver weight at 110.3 nmol/kg, po after 4 weeks; assay type: organism-based; details: in vivo, 672 h
[15] = system: Mus musculus; test: Toxicity in ovariectomized ICR mouse assessed as effect on kidney weight at 110.3 nmol/kg, po after 4 weeks; assay type: organism-based; details: in vivo, 672 h
[16] = system: Mus musculus; test: Antiosteoporosis activity against ovariectomized ICR mouse assessed as serum calcium level at 110.3 nmol/kg, po after 30 mins; assay type: functional
[17] = system: Mus musculus; test: Antiosteoporosis activity against ovariectomized ICR mouse assessed as mineral content at 110.3 nmol/kg, po after 30 mins; assay type: functional

SMILES	Activity [1]	Activity [2]	Activity [3]	Activity [4]	Activity [5]	Activity [6]	Activity [7]	Activity [8]	Activity [9]	Activity [10]	Activity [11]	Activity [12]	Activity [13]	Activity [14]	Activity [15]	Activity [16]	Activity [17]
C[C@]12CC[C@@H]3c4ccc(OCC(=O)N[C@@H](CCCNC(=N)N)C(=O)NCC(=O)N[C@@H](CC(=O)O)C(=O)N[C@@H](Cc5ccccc5)C(=O)O)cc4CC[C@H]3[C@@H]1CC[C@@H]2OC(=O)CCC(=O)N[C@@H](CCCNC(=N)N)C(=O)NCC(=O)N[C@@H](CC(=O)O)C(=O)N[C@@H](Cc1ccccc1)C(=O)O (I: RGDF-OH / II: RGDF-OH; linker I:N-II:N via Estradiol(3-OCH2CO,17-OSuc))	15.8 U/L	524 s	Non-toxic	3.09 mM	1.62 cm	35.22 mg	Non-toxic	61.17%	0.05 g	Non-toxic	55.46 mg	21.21%	522 s	Non-toxic	Non-toxic	3.19 mM	0.61%
C[C@]12CC[C@@H]3c4ccc(OCC(=O)N[C@@H](CCCNC(=N)N)C(=O)NCC(=O)N[C@@H](CC(=O)O)C(=O)N[C@@H](CO)C(=O)O)cc4CC[C@H]3[C@@H]1CC[C@@H]2OC(=O)CCC(=O)N[C@@H](CCCNC(=N)N)C(=O)NCC(=O)N[C@@H](CC(=O)O)C(=O)N[C@@H](CO)C(=O)O (I: RGDS-OH / II: RGDS-OH; linker I:N-II:N via Estradiol(3-OCH2CO,17-OSuc))	19.61 U/L	570 s	Non-toxic	2.99 mM	1.64 cm	35.6 mg	Non-toxic	61.05%	0.05 g	Non-toxic	55.22 mg	20.35%	580 s	Non-toxic	Non-toxic	3.22 mM	0.62%
CC(C)[C@H](NC(=O)[C@H](CC(=O)O)NC(=O)CNC(=O)[C@H](CCCNC(=N)N)NC(=O)CCC(=O)O[C@H]1CC[C@H]2[C@@H]3CCc4cc(OCC(=O)N[C@@H](CCCNC(=N)N)C(=O)NCC(=O)N[C@@H](CC(=O)O)C(=O)N[C@H](C(=O)O)C(C)C)ccc4[C@H]3CC[C@]12C)C(=O)O (I: RGDV-OH / II: RGDV-OH; linker I:N-II:N via Estradiol(3-OCH2CO,17-OSuc))	19.94 U/L	532 s	Non-toxic	2.84 mM	1.66 cm	35.75 mg	Non-toxic	61.56%	0.059 g	Non-toxic	56.46 mg	20.94%	591 s	Non-toxic	Non-toxic	3.17 mM	0.62%
C[C@]12CC[C@@H]3c4ccc(OCC(=O)N[C@@H](CCCNC(=N)N)C(=O)NCC(=O)N[C@@H](CC(=O)O)C(=O)N[C@@H](Cc5ccccc5)C(=O)O)cc4CC[C@H]3[C@@H]1CCC2=O (X1-RGDF-OH)	16.42 U/L	576 s		3.17 mM	1.65 cm	33.85 mg		56.96%	0.06 g		53.99 mg	20.32%	581 s			3.44 mM	0.59%
C[C@]12CC[C@@H]3c4ccc(OCC(=O)N[C@@H](CCCNC(=N)N)C(=O)NCC(=O)N[C@@H](CC(=O)O)C(=O)N[C@@H](CO)C(=O)O)cc4CC[C@H]3[C@@H]1CCC2=O (X1-RGDS-OH)	16.62 U/L	568 s		2.98 mM	1.65 cm	34.38 mg		57.76%	0.069 g		54.29 mg	20.44%	579 s			3.33 mM	0.6%
CC(C)[C@H](NC(=O)[C@H](CC(=O)O)NC(=O)CNC(=O)[C@H](CCCNC(=N)N)NC(=O)COc1ccc2c(c1)CC[C@@H]1[C@@H]2CC[C@]2(C)C(=O)CC[C@@H]12)C(=O)O (X1-RGDV-OH)	17.42 U/L	571 s		2.96 mM	1.66 cm	33.99 mg		57.24%	0.066 g		54.12 mg	20.08%	563 s			3.33 mM	0.61%
C[C@]12CC[C@@H]3c4ccc(OCC(=O)N[C@@H](CCCNC(=N)N)C(=O)NCC(=O)N[C@@H](CC(=O)O)C(=O)N[C@@H](Cc5ccccc5)C(=O)O)cc4CC[C@H]3[C@@H]1CC[C@@H]2O ({Acetyl(estradiol-3-yloxy)}-RGDF-OH)	25.42 U/L	560 s			1.67 cm	33.99 mg			0.067 g				557 s			3.34 mM	0.6%
C[C@]12CC[C@@H]3c4ccc(OCC(=O)N[C@@H](CCCNC(=N)N)C(=O)NCC(=O)N[C@@H](CC(=O)O)C(=O)N[C@@H](CO)C(=O)O)cc4CC[C@H]3[C@@H]1CC[C@@H]2O ({Acetyl(estradiol-3-yloxy)}-RGDS-OH)	26.62 U/L	577 s			1.65 cm				0.064 g				582 s			3.33 mM	0.6%
CC(C)[C@H](NC(=O)[C@H](CC(=O)O)NC(=O)CNC(=O)[C@H](CCCNC(=N)N)NC(=O)COc1ccc2c(c1)CC[C@@H]1[C@@H]2CC[C@]2(C)[C@@H](O)CC[C@@H]12)C(=O)O ({Acetyl(estradiol-3-yloxy)}-RGDV-OH)	26.01 U/L	577 s				34.29 mg			0.064 g				569 s			3.32 mM	0.61%
C[C@]12CC[C@@H]3c4ccc(O)cc4CC[C@H]3[C@@H]1CC[C@@H]2OC(=O)CCC(=O)N[C@@H](CCCNC(=N)N)C(=O)NCC(=O)N[C@@H](CC(=O)O)C(=O)N[C@@H](Cc1ccccc1)C(=O)O ({Succinyl(O17-estradiol)}-RGDF-OH)	23.18 U/L	568 s				34.87 mg		58.06%	0.06 g				576 s			3.34 mM	0.61%
C[C@]12CC[C@@H]3c4ccc(O)cc4CC[C@H]3[C@@H]1CC[C@@H]2OC(=O)CCC(=O)N[C@@H](CCCNC(=N)N)C(=O)NCC(=O)N[C@@H](CC(=O)O)C(=O)N[C@@H](CO)C(=O)O ({Succinyl(O17-estradiol)}-RGDS-OH)	23.93 U/L	561 s			1.66 cm			59.14%	0.063 g		53.98 mg		575 s			3.35 mM	0.6%
CC(C)[C@H](NC(=O)[C@H](CC(=O)O)NC(=O)CNC(=O)[C@H](CCCNC(=N)N)NC(=O)CCC(=O)O[C@H]1CC[C@H]2[C@@H]3CCc4cc(O)ccc4[C@H]3CC[C@]12C)C(=O)O ({Succinyl(O17-estradiol)}-RGDV-OH)	22.96 U/L	560 s			1.67 cm	34.7 mg			0.064 g				551 s			3.36 mM	0.61%
C[C@]12CC[C@@H]3c4ccc(O)cc4CC[C@H]3[C@@H]1CC[C@@H]2O [ESTRADIOL]	27.22 U/L	441 s			1.64 cm				0.108 g				417 s			3.34 mM	0.61%
C[C@]12CC[C@@H]3c4ccc(O)cc4CC[C@H]3[C@@H]1CCC2=O [ESTRONE]	27.97 U/L	433 s		3.13 mM	1.65 cm	32.08 mg		56.2%	0.114 g		53.03 mg	19.11%	411 s			3.35 mM	0.61%

From ChEMBL document CHEMBL1151896, “3D QSAR of novel estrogen-RGD peptide conjugates: getting insight into structural dependence of anti-osteoporosis activity and side effect of estrogen in ERT” (Bioorg Med Chem, 2009)
